Reference: PubChem BioAssay AID2010 (Broad Institute, 2009)
Results filed as inconclusive are left out. Active and inactive are the calls of the source.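 How the source made its calls: active means fitted IC50 within a set limit above the top dose, meaning light loss from cell killing; inconclusive means flat curve with 30 to 70% effect, or poor fit; inactive means IC50 beyond that set limit.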

System: NIH3T3 viability, ATP luminescence (CellTiter-Glo), 90 h
Experiment: cytotoxicity toward NIH3T3 fibroblasts, dose response, counter-screen, cell-based, ATP luminescence, mouse fibroblasts (AID 2010)

Row | Compound | IC50
1 | O=[N+]([O-])C(/C=C(/Cl)[N+](=O)[O-])=C(N1CCCCC1)N1CCCCC1 | > 6 µM (inactive)
2 | O=[N+]([O-])C(/C=C(\Cl)[N+](=O)[O-])=C(N1CCCCC1)N1CCCCC1 | > 6 µM (inactive)
3 | Cc1ccccc1OCc1n(CC(=O)OC2CC(C)CCC2C(C)C)c2ccccc2[n+]1C (stereo not given) | > 6 µM (inactive)
4 | CC(C)N1C(=O)/C(=C\c2nc3ccccc3c(=O)n2-c2ccccc2)c2ccccc21 | > 6 µM (inactive)
5 | C#CCOCCOCCOCCNc1nc(N2CCN(C(=O)CCCCCCCCCCNC(=O)Cn3cc(C[C@@H](C)O)nn3)CC2)nc(N2CCN(C(=O)CCCCCCCCCCNC(=O)[C@H](CCCN=C(N)N)n3cc(C[C@@H](C)CC)nn3)CC2)n1 | > 6 µM (inactive)
